The results in this text go back to US20220202872A1, “METHOD FOR GENERATING A THREE-DIMENSIONAL NEUROMUSCULAR ORGANOID IN VITRO” (MAX-DELBRÜCK-CENTRUM FÜR MOLEKULARE MEDIZIN IN DER …, priority 2020, published 2022).

Assay [1] concerns NMOs. Briefly: Microelectrode array (MEA) recording of whole organoids. The assay is classed as cell-based, human. Particulars: for suppression of electrical activity: APV 50 uM and CNQX 40 uM applied together, glutamate receptor inhibitors; for local (single electrode) firings / synchronous network activity (paired electrode spikes) / rhythmic, central pattern generator-like activity: NMDA and 5-HT applied together; for local (single electrode) firings / synchronous network activity (paired electrode spikes): day 50, FIG. 6G legend: 50 uM NMDA/40 uM 5-HT; for electrical activity triggered by NMDA/5-HT cocktail: cocktail of NMDA (10 uM) and 5-HT (40 uM), applied together.

The test system of assay [2] is NMOs. Nature of the assay: Contraction analysis of neuromuscular organoids before and after curare. The assay is classed as cell-based, human. Particulars: curare 10 uM; before vs after treatment. How it is done:
To investigate the functionality of NMJs, the contractile activity of NMOs was measured before and after treatment with Curare (10 uM), a blocker of AChRs.
Video segments of equal length were recorded using a bright-field microscope (DMI1, Leica) in 3 different regions of the same organoid using 20× zoom. To quantify muscle contractions, each movie was analyzed separately where each visible contraction was counted and then averaged for the whole organoid.
To analyze and map organoid muscular contraction, bright field time series images were automatically thresholded using ImageJ software to identify organoid border. A binary stack was created and contractile regions were visually identified. Regions of interest were defined and variations of organoid area (in pixel), used as a proxy of physical contraction, were plotted over the time series.

Entries after “also recorded” stand apart in the source; their conditions may differ.

As to `N#Cc1cc2[nH]c(=O)c(=O)[nH]c2cc1[N+](=O)[O-]` [CNQX], the “suppression of electrical activity” value with NMOs [1] is “reversibly suppressed nearly all electrical activity”.

In the case of `CN[C@H](CC(=O)O)C(=O)O` [NMDA], in the assay on NMOs [1], the “local (single electrode) firings” value was “increased single firings; also recorded: notable increase”, the “synchronous network activity (paired electrode spikes)” value was “increase in paired electrode spikes; also recorded: dramatic increase” and the “electrical activity triggered by NMDA/5-HT cocktail” value is listed as “instantaneously triggered strong activity”. The “rhythmic, central pattern generator-like activity” value in the assay on NMOs [1] (day 50 NMOs) is listed as “central pattern generator-like activity; also recorded: became rhythmic; also recorded: produced rhythmic bursts of electrical activity”.

For the compound `N[C@@H](CCC(=O)O)C(=O)O` [glutamate], the “increase of spontaneous electrical activity” value with NMOs [1] (acute glutamate 50 uM, day 30 and day 50 organoids) is on record as “approximately 12 fold”.

Regarding `NC1=N[C@H](O)[C@H]2[C@H]3O[C@]4(O)O[C@@H]([C@@H](O)[C@@]2(N1)[C@@H]4O)[C@]3(O)CO` [tetrodotoxin], in the assay with NMOs [1], the “suppression of NMDA/5-HT-triggered activity” value is given as “reversibly suppressed”.

Regarding `N[C@@H](CCCP(=O)(O)O)C(=O)O` [APV], the “suppression of electrical activity” value in the assay with NMOs [1] is “reversibly suppressed nearly all electrical activity”.

Consider `NCCc1c[nH]c2ccc(O)cc12` [5-HT, Serotonin], for which, in the assay with NMOs [1], the “local (single electrode) firings” value is “increased single firings; also recorded: notable increase”, the “synchronous network activity (paired electrode spikes)” value is listed as “increase in paired electrode spikes; also recorded: dramatic increase” and the “electrical activity triggered by NMDA/5-HT cocktail” value is “instantaneously triggered strong activity”. The “rhythmic, central pattern generator-like activity” value in the assay with NMOs [1] (day 50 NMOs) is “central pattern generator-like activity; also recorded: became rhythmic; also recorded: produced rhythmic bursts of electrical activity”.

As for curare, the “contraction of the skeletal muscles (contractile activity of NMOs)” value with NMOs [2] is given as “blocked the contraction; also recorded: organoid relaxation”. The “block of acetylcholine-stimulated electrical activity” value in the assay on NMOs [1] (curare 10 uM added after acetylcholine 10 uM, day 50 NMOs) was “rapidly and reversibly blocked”.

As to `CC(=O)OCC[N+](C)(C)C` [acetylcholine], the “increase of electrical activity” value in the assay on NMOs [1] (acetylcholine 10 uM stimulation, day 50 NMOs) is “approximately 10 fold”.
